# Results from patent publication US5798382A, “2,3-dihydrobenzofuran derivatives, method for producing the same, and use thereof” (Asahi Kasei Kogyo Kabushiki Kaisha, priority 1994, dated 1998).
# How the values were obtained:
# adrenaline α1 receptor = assay: Affinity for adrenaline α1 receptor: inhibition of 3H-Prazosin binding to rat cerebral cortex membrane fraction; parameters: species or system rat (male SD strain); conditions: for Ki: 3H-Prazosin, rat cerebral cortex membrane, 25° C. 30 min, tested as hydrochloride salt
# Method: A male SD strain rat (7-week old; Charles River) was decapitated, and brain was taken out therefrom quickly. Cerebral cortex of the rat was separated and extracted at […] under ice cooling. The extracted cerebral cortex was frozen at -80° C. for 24 hours or longer. This frozen system was gradually thawed under ice cooling and then, 50 mM Tris-HCl buffer (pH 7.4) was added to the brain under ice cooling to obtain a suspension. The resultant suspension was homogenized, and then subjected to centrifugation at 48,000 g for 15 minutes, to thereby obtain a precipitate. The precipitate thus obtained was washed twice and resuspended in the same Tris-HCl buffer as used above. […] The total volume amount of the reaction mixture was 1 ml. The resultant reaction mixture was subjected to suction filtration using a Whatman GF/C filter, and the filter was washed three times in 50 mM Tris-HCl buffer (pH 7.4, 4 ml), transferred to a vial and then, the radioactivity of Prazosin absorbed on the filter was determined using a liquid scintillation counter. […] On the other hand, substantially the same procedure as mentioned above was repeated, except that 100 nM (final concentration) Prazosin was added to the ^3 H-Prazosin and ascorbic acid. The radioactivity of ^3 H-Prazosin adsorbed on the filter was determined in the same manner as mentioned above. […] Further, substantially the same procedure as mentioned above was repeated, except that, instead of Prazosin, a test compound was used in a predetermined concentration. The radioactivity of ^3 H-Prazosin adsorbed on the filter was determined in the same manner as mentioned above. […] The binding inhibition ratios were plotted, taking the logarithmic value of the concentration of the test compound as the abscissa value, and the binding inhibition ratio as the ordinate value. Then, a curve was drawn by the non-linear least square method.
# Suncus murinus = assay: Activities against emesis: acceleration-stimulus induced emesis in suncus; assay type: in vivo; conditions: stimulus (4 cm, 1 Hz) 30 minutes after, 4 suncus, hydrochloride salt, physiological saline 0.55
# Excerpt: The activities of individual compounds against emesis were examined using Suncus murinus. Suncus murinus is a small animal belonging to the Soricidae family. It has been known that suncus is likely to suffer from motion sickness and is susceptible to occurrence of emesis [see "Seitai-no-kagaku (Science of living body)", 42, 538 (1990)]. Suncus is likely to show symptoms like the symptoms of human motion sickness under the stimulus of simple acceleration, finally leading to the occurrence of emesis. It has been known that a drug, such as cisplatin, has an emesis-inducing activity.
# In this test, test compounds were individually administered intraperitoneally to suncus. 30 minutes after the administration, acceleration-stimulus (amplitude: 4 cm; frequency; 1 Hz) was given to the suncus, and the suncus thus treated was observed as to whether emesis occurred or not.
# Each of the compounds (1) used in the above tests was tested in the form of a hydrochloride salt thereof, and represented in Table 3 by the compound number used in Examples described below.
SMILES,Ki (adrenaline α1 receptor) [nM],Time for occurrence of emesis (Suncus murinus; 1 mg/kg intraperitoneally) [min. sec],other results
"CCN(CCCCNC(=O)c1cccs1)CC1Cc2ccccc2O1 (single isomer, unassigned; (-)) [Compound 117A, (-)-2-{N-ethyl-N-[4-(2-thienylcarbonylamino)butyl]}aminomethyl-2,3-dihydrobenzo[b]furan]",580,,
"O=C(NCCCCNCC1Cc2ccccc2O1)c1ccco1 (centres unmarked) [Compound 108B, 2-{N-[4-(2-furylcarbonylamino)butyl]}aminomethyl-2,3-dihydrobenzo[b]furan]",,4.56,
"O=C(NCCCCNCC1Cc2ccccc2O1)c1cccs1 (single isomer, unassigned; (-)) [Compound 111A, (-)-2-{N-[4-(2-thienylcarbonylamino)butyl]}aminomethyl-2,3-dihydrobenzo-[b]furan]",160,,
"O=S(=O)(NCCCCNCC1Cc2ccccc2O1)c1ccc2ccccc2c1 (centres unmarked) [Compound 115B, 2-{N-[4-(2-naphthylsulfonylamino)butyl]}aminomethyl-2,3-dihydrobenzo[b]furan]",,5.56,
"O=C(NCCCCNCC1Cc2ccccc2O1)c1cccc2ccccc12 (centres unmarked) [Compound 101B, 2-{N-[4-(1-naphthoylamino)butyl]}aminomethyl-2,3-dihydrobenzo[b]furan]",150,,
"COc1cc2nc(N3CCN(C(=O)c4ccco4)CC3)nc(N)c2cc1OC [^3 H-Prazosin, reference compound]",,,"Kd (adrenaline α1 receptor; radioactive ligand, used in Ki calculation): 0.133 nM"

# Continued by falling Ki (adrenaline α1 receptor), values first:
Ki (adrenaline α1 receptor) [nM],SMILES,Time for occurrence of emesis (Suncus murinus; 1 mg/kg intraperitoneally) [min. sec],other results
530,"CN(CCCCNC(=O)c1cccs1)CC1Cc2ccccc2O1 (single isomer, unassigned; (-)) [Compound 116A, (-)-2-{N-methyl-N-[4-(2-thienylcarbonylamino)butyl]}aminomethyl-2,3-dihydrobenzo[b]furan]",,
320,"O=C(NCCNCC1Cc2ccccc2O1)c1cccc2ccccc12 (centres unmarked) [Compound 112B, 2-{N-[2-(1-naphthoylamino)ethyl]}aminomethyl-2,3-dihydrobenzo[b]furan]",,Time for occurrence of emesis (Suncus murinus; 3 mg/kg intraperitoneally): 6.03 min. sec
240,"O=C(NCCCCNCC1Cc2ccccc2O1)c1cccs1 (centres unmarked) [Compound 106B, 2-{N-[4-(2-thienylcarbonylamino)butyl]}aminomethyl-2,3-dihydrobenzo[b]furan]",8.50,
230,"O=C(NCCCCNCC1Cc2ccccc2O1)c1ccsc1 (centres unmarked) [Compound 107B, 2-{N-[4-(3-thienylcarbonylamino)butyl]}aminomethyl-2,3-dihydrobenzo[b]furan]",,
140,"O=C(NCCCCNCC1Cc2ccccc2O1)c1ccc2ccccc2c1 (centres unmarked) [Compound 102B, 2-{N-[4-(2-naphthoylamino)butyl]}aminomethyl-2,3-dihydrobenzo[b]furan]",,
96,"O=S(=O)(NCCCCNCC1Cc2ccccc2O1)c1cccc2ccccc12 (centres unmarked) [Compound 114B, 2-{N-[4-(1-naphthylsulfonylamino)butyl]}aminomethyl-2,3-dihydrobenzo[b]furan]",3.50,
95,"O=C(NCCCNCC1Cc2ccccc2O1)c1cccc2ccccc12 (centres unmarked) [Compound 113B, 2-{N-[3-(1-naphthoylamino)propyl]}aminomethyl-2,3-dihydrobenzo[b]furan]",7.44,
